Test results taken from EP4741395A1, “NOVEL COMPOUND SENSITIVE TO NITROGEN MONOXIDE AND PHARMACEUTICAL COMPOSITION COMPRISING SAME” (Omniamed Co. Ltd, priority 2023, dated 2025).

Tests used:
splenocytes [1] = experiment: Inhibitory activity on cell proliferation in splenocytes (CCK-8 analysis); assay type: cell-based, C57BL/6 mouse; details: Mus musculus, Splenocyte, Concanavalin A 5 µg/mL, 72 hours, read-out: Inhibitory Activity on Cell Proliferation (%) (Mean±SD)
IFN-γ = IFN-γ reduction activity in Concanavalin A-treated splenocytes (quantitative ELISA); assay type: cell-based, C57BL/6 mouse; details: Mus musculus, Splenocyte, Concanavalin A 5 µg/mL, 72 hours, read-out: IFN-γ Reduction Activity (%) (Mean±SD)
Method: (§1) A spleen was isolated from an 8-week-old C57BL/6 mouse, and splenocytes were isolated using a physical method.
(§2) The separated splenocytes were diluted to a concentration of 5×10^6 cells/mL in a RPMI 1640 medium including 10% FBS, 100 U/mL of penicillin and 100 µg/mL of streptomycin, and the diluted splenocytes were dispensed at 500 µL/well into a 48-well plate and 100 µL/well into a 96-well plate, and cultured for 72 hours in an incubator. The splenocytes were treated with Concanavalin A (5 µg/mL) when dispensed to induce an immune response, and herein, […] of the pharmaceutical composition including the compound according to each of the Examples was also added thereto. After 72 hours, the supernatant was collected, and the level of remaining NO was checked through a Griess assay, and calculated by the following Equation 4.
NO is one of important inflammatory mediators, and may increase the level of inflammatory cytokine. Concanavalin A (5 µg/mL), which induces an immune response in splenocytes, and the compound of each of Examples were treated in a concentration-dependent manner to check whether the level of IFN-γ, a representative inflammatory cytokine, was reduced. The supernatant was collected 72 hours after the treatment, and analyzed using a quantitative enzyme-linked immunosorbent assay (Quantitative-ELISA).

[2] = DAF-2 assay of NO scavenging activity without and with H2O2 (ROS); assay type: biochemical; details: SNAP 100 µM, DAF-2 10 µM, 3 hours, 37°C; for NO Scavenging Activity (%) (Mean±SD) With H2O2: H2O2 1 mM
Method: The pharmaceutical composition sensitive to nitrogen monoxide including the compound according to each of Examples 23 to 28 and 32 may have scavenging activity for reactive oxygen species (ROS). NO scavenging activity of the pharmaceutical composition was evaluated through a DAF-2 assay.
Specifically, to a 100 µM solution of SNAP, the compound synthesized in each of the Examples was added at a concentration of the following Table 2, and reacted. Then 10 µM of DAF-2 was added thereto, followed by a reaction for 3 hours in a 37°C incubator.
Additionally, a stock solution of H2O2 (10 M) was added to the reaction solution so that SNAP and H2O2 had final concentrations of 100 µM and 1 mM, respectively. Then, the compound synthesized in each of the Examples was added thereto at a concentration of the following Table 11, followed by a reaction in the same manner, and NO scavenging activity was calculated by Equation 1.

Raw 264.7 cell line = experiment: NO scavenging activity in LPS-treated immune cells (Griess reagent); assay type: cell-based; details: Mus musculus, RAW264.7, Raw 264.7, LPS 500 ng/mL, 24 hours, read-out: NO Scavenging Activity (%) (Mean±SD)
Method: Raw 264.7 cell line was seeded in a 48-well plate at a density of 8×10^4 cells/well, and cultured at 37°C in a DMEM medium including 10% FBS, 100 U/mL of penicillin and 100 µg/mL of streptomycin.
The medium was cultured overnight, and then replaced with a fresh medium including 10 µM of the pharmaceutical composition sensitive to nitrogen monoxide including the compound of each of Examples 1 to 30 and 500 ng/mL of LPS, and the fresh medium was cultured again for another 24 hours.
Lastly, in order to measure the amount of NO produced, the amount of NO2^- present in the cell culture medium was measured using a Griess reagent (sulfanilamide, N-1-naphthylethylenediamine dihydrochloride). Specifically, 100 µL of a Griess reagent was mixed with a mixture solution of 50 µL of the cell culture medium and 50 µL of PBS. The mixture solution was reacted for 10 minutes in a well plate, and absorbance thereof at 540 nm was measured.

JAK 1 = JAK 1 (Homo sapiens, UniProt P23458); experiment: JAK Human TK kinase enzymatic radiometric assay (Eurofins), JAK 1; details: value close to 100 indicates low JAK activity of the compound
JAK 1, sequence (P23458 whole entry): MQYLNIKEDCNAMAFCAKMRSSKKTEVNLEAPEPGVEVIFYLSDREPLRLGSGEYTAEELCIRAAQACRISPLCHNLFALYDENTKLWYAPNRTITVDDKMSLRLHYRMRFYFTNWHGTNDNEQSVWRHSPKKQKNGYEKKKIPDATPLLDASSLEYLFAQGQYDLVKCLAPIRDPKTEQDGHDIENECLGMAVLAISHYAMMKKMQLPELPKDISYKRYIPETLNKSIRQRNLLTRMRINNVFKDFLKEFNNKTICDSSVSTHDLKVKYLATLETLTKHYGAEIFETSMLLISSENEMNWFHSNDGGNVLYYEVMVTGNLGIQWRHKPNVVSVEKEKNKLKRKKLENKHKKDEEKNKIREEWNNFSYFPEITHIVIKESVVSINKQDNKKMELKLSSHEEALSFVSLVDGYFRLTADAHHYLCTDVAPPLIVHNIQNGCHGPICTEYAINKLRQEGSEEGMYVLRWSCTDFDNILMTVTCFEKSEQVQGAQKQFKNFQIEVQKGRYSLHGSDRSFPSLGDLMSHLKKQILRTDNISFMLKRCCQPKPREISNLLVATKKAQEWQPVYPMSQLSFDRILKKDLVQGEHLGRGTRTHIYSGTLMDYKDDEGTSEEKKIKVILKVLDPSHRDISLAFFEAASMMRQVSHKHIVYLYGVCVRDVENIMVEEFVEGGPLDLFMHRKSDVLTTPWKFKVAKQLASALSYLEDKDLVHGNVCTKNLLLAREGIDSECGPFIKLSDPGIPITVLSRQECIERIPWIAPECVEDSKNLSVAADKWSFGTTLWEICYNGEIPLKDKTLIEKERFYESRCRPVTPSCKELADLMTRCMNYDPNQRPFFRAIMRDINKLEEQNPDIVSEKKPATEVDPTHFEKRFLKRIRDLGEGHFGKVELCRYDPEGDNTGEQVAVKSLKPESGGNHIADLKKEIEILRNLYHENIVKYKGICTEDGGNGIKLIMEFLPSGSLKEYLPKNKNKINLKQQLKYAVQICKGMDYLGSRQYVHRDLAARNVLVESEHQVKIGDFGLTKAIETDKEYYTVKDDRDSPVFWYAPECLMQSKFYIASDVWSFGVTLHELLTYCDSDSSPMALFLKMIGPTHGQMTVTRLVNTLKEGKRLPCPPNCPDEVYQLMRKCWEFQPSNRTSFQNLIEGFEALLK
From the text: For the compounds of the Examples, JAK activity of each of the compounds was verified using the JAK Human TK Kinase Enzymatic Radiometric Kinase Profiler Assay service provided by Eurofins Scientific.
The activity was verified after inducing a reaction at the JAK 1, 2 and 3 active sites using radioactively labeled ATP.

splenocytes [3] = experiment: NO scavenging activity in Concanavalin A-treated splenocytes (Griess assay); assay type: cell-based, C57BL/6 mouse; details: Mus musculus, Splenocyte, Concanavalin A 5 µg/mL, 72 hours, read-out: NO Scavenging Activity (%) (Mean±SD)
Method: as §1, §2

SMILES | inhibition at 10 µM (splenocytes [1]) [%] | activity at 10 µM (IFN-γ) [%] | NO Scavenging Activity (%) (Mean±SD) Without H2O2 ([2]; compound 1 µM) | NO Scavenging Activity (%) (Mean±SD) With H2O2 ([2]; compound 1 µM) | NO Scavenging Activity (%) (Mean±SD) Without H2O2 ([2]; compound 5 µM) | NO Scavenging Activity (%) (Mean±SD) With H2O2 ([2]; compound 5 µM) | NO Scavenging Activity (%) (Mean±SD) Without H2O2 ([2]; compound 10 µM) | NO Scavenging Activity (%) (Mean±SD) With H2O2 ([2]; compound 10 µM) | activity at 10 µM (Raw 264.7 cell line) [%] | JAK 1 Activity (JAK 1; 0.1 nM) | JAK 1 Activity (JAK 1; 1 nM) | JAK 1 Activity (JAK 1; 10 nM) | JAK 1 Activity (JAK 1; 100 nM) | activity at 10 µM (splenocytes [3]) [%]
C[C@@H]1CCN(C(=O)CC#N)C[C@@H]1N(C)c1ncnc2c1ccn2C(=O)N(C)CCN(C)C(=O)Nc1cc(N(C)C)ccc1NC(=O)OCc1ccc(B(O)O)cc1 [Example 23, (4-((((2-(3-(2-(4-(((3R,4R)-1-(2-cyanoacetyl)-4-methylpiperidin-3-yl)(methyl)amino)-N-methyl-7H-pyrrolo[2,3-d]pyrimidine-7-carboxamido)ethyl)-3-methylureido)-4-(dimethylamino)phenyl)carbamoyl)oxy)methyl)phenyl)boronic acid] | 11.8 ± 2.08 | 68 ± 0.45 | 21.08 ±0.77 | 25.76 ±6.11 | 39.33 ±8.29 | 64.84 ±1.94 | 52.96 ±6.23 | 83.96 ±0.29 | 16.8 ± 0.7 | 94 | 90 | 100 | 83 | 19.5 ± 0.65
C[C@@H]1CCN(C(=O)CC#N)C[C@@H]1N(C)c1ncnc2c1ccn2C(=O)N(C)CCN(C)C(=O)Nc1cc2c(cc1NC(=O)OCc1ccc(B(O)O)cc1)n(C)c(=O)n2C [Example 24, (4-((((6-(3-(2-(4-(((3R,4R)-1-(2-cyanoacetyl)-4-methylpiperidin-3-yl)(methyl)amino)-N-methyl-7H-pyrrolo[2,3-d]pyrimidine-7-carboxamido)ethyl)-3-methylureido)-1,3-dimethyl-2-oxo-2,3-dihydro-1H-benzo[d]imidazol-5-yl)carbamoyl)oxy)methyl)phenyl)boronic acid] | 67.2 ± 4.67 | 95.5 ± 0.15 | 16.43 ±4.86 | 34.66 ±3.80 | 27.84 ±7.68 | 43.58 ±6.00 | 40.54 ±3.96 | 53.52 ±3.09 | 9.8 ± 0.64 |  |  |  |  | 78.3 ± 0.5
COc1ccc(NC(=O)OCc2ccc(B3OC(C)(C)C(C)(C)O3)cc2)c(NC(=O)n2ccc3c(N(C)[C@H]4CN(C(=O)CC#N)CC[C@H]4C)ncnc32)c1 [Example 27, 4-(4,4,5,5-tetramethyl-1,3,2-dioxaborolan-2-yl)benzyl (2-(4-(((3R,4R)-1-(2-cyanoacetyl)-4-methylpiperidin-3-yl) (methyl)amino)-7H-pyrrolo[2,3-d]pyrimidine-7-carboxamido)-4-methoxyphenyl)carbamate] | 81.1 ± 9.03 | 74.6 ± 2.41 |  |  |  |  | 59.31 ±0.55 | 97.09 ±0.01 | 59.3 ± 0.06 |  |  |  |  | 77.6 ± 1.24
C[C@@H]1CCN(C(=O)CC#N)C[C@@H]1N(C)c1ncnc2c1ccn2C(=O)Nc1ccccc1NC(=O)OCc1ccc(B2OC(C)(C)C(C)(C)O2)cc1 [Example 25, 4-(4,4,5,5-tetramethyl-1,3,2-dioxaborolan-2-yl)benzyl (2-(4-(((3R,4R)-1-(2-cyanoacetyl)-4-methylpiperidin-3-yl) (methyl)amino)-7H-pyrrolo[2,3-d]pyrimidine-7-carboxamido)phenyl) carbamate] | 81.4 ± 7.94 | 98.7 ± 0.04 |  |  |  |  | 42.36 ±1.91 | 89.96 ±0.19 | 63.2 ± 0.56 |  |  |  |  | 100
